Measured values taken from patent US20040259926A1, “3-Aryloxy and 3-heteroaryloxy substituted benzo[b]thiophenes as therapeutic agents” (priority 2003, published 2004).
Counter-ions that a name gives are not always drawn.

target: T1, PI3Kγ (recombinant p101/p110γ protein) (Homo sapiens, UniProt P48736); test: PI3Kγ In Vitro Kinase Assay; assay type: biochemical; conditions: purified recombinant p101/p110γ with G protein β1/γ2 subunits; 20 μM ATP, [γ-32P-ATP]; 25 μM PIP2 lipid micelles; 20 minutes at room temperature
T1 construct: HA; made in house; host or cells: Spodoptera frugiperda (Sf9) cells, baculovirus co-infection
Outline: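 Baculovirus/Sf9-expressed p101/p110γ (~2.7 nM) with Gβ1/γ2 (~57.7 nM) in HEPES/NaCl/EGTA/DTT buffer; 20 μM ATP plus [γ-32P]ATP, micelles of 25 μM PIP2, 300 μM PE, 10 mM MgCl2. Reactions ran 20 minutes at room temperature; radiolabelled PIP3 captured on glass-fibre filters and counted for IC50.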

T1 sequence (P48736 whole entry, species assumed): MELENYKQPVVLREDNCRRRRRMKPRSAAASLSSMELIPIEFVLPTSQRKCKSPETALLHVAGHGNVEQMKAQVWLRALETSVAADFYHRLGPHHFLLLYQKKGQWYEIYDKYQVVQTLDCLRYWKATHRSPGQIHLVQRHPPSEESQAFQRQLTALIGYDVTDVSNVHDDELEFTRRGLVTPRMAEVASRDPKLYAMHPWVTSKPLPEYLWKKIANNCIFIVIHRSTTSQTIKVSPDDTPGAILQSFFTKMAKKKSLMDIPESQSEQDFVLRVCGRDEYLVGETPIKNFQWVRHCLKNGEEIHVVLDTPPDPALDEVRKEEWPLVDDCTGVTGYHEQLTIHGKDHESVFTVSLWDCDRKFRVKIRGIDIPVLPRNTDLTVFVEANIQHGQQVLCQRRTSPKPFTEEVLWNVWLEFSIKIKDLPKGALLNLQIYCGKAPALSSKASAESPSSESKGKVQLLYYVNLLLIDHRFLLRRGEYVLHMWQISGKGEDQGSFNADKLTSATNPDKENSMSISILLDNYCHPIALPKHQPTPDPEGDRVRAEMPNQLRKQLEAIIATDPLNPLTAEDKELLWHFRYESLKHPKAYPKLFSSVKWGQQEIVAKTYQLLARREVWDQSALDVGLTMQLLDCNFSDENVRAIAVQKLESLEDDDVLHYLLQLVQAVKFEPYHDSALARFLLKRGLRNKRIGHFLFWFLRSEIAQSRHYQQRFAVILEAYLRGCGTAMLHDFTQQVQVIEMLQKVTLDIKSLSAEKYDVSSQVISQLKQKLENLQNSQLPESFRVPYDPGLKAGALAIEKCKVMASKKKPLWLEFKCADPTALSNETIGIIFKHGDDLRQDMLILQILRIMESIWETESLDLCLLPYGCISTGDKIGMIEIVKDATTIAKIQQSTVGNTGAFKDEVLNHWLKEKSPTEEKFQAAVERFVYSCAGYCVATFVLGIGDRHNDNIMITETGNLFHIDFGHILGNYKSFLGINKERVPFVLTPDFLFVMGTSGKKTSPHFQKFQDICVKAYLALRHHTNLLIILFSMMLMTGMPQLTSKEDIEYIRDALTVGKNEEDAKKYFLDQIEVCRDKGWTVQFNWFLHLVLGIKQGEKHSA
T1 sequence (Q8WYR1 whole entry partner, species assumed): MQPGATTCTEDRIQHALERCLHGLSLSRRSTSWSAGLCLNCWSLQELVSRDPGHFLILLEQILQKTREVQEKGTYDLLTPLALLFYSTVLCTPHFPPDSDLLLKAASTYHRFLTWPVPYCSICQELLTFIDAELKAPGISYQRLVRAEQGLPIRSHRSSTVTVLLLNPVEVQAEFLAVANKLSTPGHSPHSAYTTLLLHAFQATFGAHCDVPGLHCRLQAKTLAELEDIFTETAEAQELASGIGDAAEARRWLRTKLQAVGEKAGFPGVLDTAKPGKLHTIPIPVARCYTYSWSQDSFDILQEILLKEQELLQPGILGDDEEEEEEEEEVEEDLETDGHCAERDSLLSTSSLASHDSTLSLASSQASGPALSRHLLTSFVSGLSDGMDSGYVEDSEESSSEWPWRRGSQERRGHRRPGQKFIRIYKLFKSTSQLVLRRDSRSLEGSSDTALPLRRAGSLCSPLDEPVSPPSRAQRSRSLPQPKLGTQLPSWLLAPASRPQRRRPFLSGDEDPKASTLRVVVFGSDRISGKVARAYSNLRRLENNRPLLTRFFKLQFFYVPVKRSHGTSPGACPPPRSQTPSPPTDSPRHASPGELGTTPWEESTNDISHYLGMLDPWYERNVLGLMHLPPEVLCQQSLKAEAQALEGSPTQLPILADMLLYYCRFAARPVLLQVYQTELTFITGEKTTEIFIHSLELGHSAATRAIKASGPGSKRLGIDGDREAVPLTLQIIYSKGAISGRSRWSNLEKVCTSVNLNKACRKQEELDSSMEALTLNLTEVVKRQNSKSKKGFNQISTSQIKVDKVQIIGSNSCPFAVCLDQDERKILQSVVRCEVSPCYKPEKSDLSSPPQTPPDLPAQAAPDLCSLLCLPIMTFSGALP

Row | IC50 [nM] | SMILES
1 | 185 | COc1cc2sc(C(=O)Nc3nnn[nH]3)c(OCCc3ccc(N(C)C)cc3)c2cc1OC [Example C.27, 3-[2-(4-Dimethylamino-phenyl)-ethoxy]-5,6-dimethoxy-benzo[b]thiophene-2-carboxylic acid (1H-tetrazol-5-yl)-amide]
2 | 185 | COc1cc2sc(C(=O)Nc3nnn[nH]3)c(OCc3ccc4c(c3)CCCC4)c2cc1OC [Example C.28, 5,6-Dimethoxy-3-(5,6,7,8-tetrahydro-naphthalen-2-ylmethoxy)-benzo[b]thiophene-2-carboxylic acid (1H-tetrazol-5-yl)-amide]
3 | 145 | COc1cc2sc(C(=O)Nc3nnn[nH]3)c(O[C@@H](C)Cc3ccccc3)c2cc1OC [Example C.29, 5,6-Dimethoxy-3-((S)-1-methyl-2-phenyl-ethoxy)-benzo[b]thiophene-2-carboxylic acid (1H-tetrazol-5-yl)-amide]
4 | 134 | COc1cc2sc(C(=O)Nc3nnn[nH]3)c(OCc3ccc(C4CCCCC4)cc3)c2cc1OC [Example C.30, 3-(4-Cyclohexyl-benzyloxy)-5,6-dimethoxy-benzo[b]thiophene-2-carboxylic acid (1H-tetrazol-5-yl)-amide]
5 | 123 | COc1cc2sc(C(=O)Nc3nnn[nH]3)c(OCc3cc(C(C)(C)C)cc(C(C)(C)C)c3)c2cc1OC [Example C.31, 3-(3,5-Di-tert-butyl-benzyloxy)-5,6-dimethoxy-benzo[b]thiophene-2-carboxylic acid (1H-tetrazol-5-yl)-amide]
6 | 117 | COc1cc2sc(C(=O)Nc3nnn[nH]3)c(OCCc3cc(C)cc(C)c3)c2cc1OC [Example C.32, 3-[2-(3,5-Dimethyl-phenyl)-ethoxy]-5,6-dimethoxy-benzo[b]thiophene-2-carboxylic acid (1H-tetrazol-5-yl)-amide]
7 | 115 | COc1cc2sc(C(=O)Nc3nnn[nH]3)c(OCCCc3ccccc3)c2cc1OC [Example C.33, 5,6-Dimethoxy-3-(3-phenyl-propoxy)-benzo[b]thiophene-2-carboxylic acid (1H-tetrazol-5-yl)-amide]
8 | 84 | COc1cc2sc(C(=O)Nc3nnn[nH]3)c(OCC(C)(C)c3ccccc3)c2cc1OC [Example C.34, 5,6-Dimethoxy-3-(2-methyl-2-phenyl-propoxy)-benzo[b]thiophene-2-carboxylic acid (1H-tetrazol-5-yl)-amide]
9 | 42 | COc1cc2sc(C(=O)Nc3nnn[nH]3)c(OC[C@H](C)c3ccccc3)c2cc1OC [Example C.35, 5,6-Dimethoxy-3-((R)-2-phenyl-propoxy)-benzo[b]thiophene-2-carboxylic acid (1H-tetrazol-5-yl)-amide]
10 | 41 | COc1cc2sc(C(=O)Nc3nn[nH]n3)c(Oc3ccccc3)c2cc1C [Example D.1, 6-Methoxy-5-methyl-3-phenoxy-benzo[b]thiophene-2-carboxylic acid (2H-tetrazol-5-yl)-amide]
11 | 150 | COc1cc2sc(C(=O)Nc3nn[nH]n3)c(Oc3cccc(C=O)c3)c2cc1C [Example D.2, 3-(3-Formyl-phenoxy)-6-methoxy-5-methyl-benzo[b]thiophene-2-carboxylic acid (2H-tetrazol-5-yl)-amide]
12 | 275 | COc1cc2sc(C(=O)Nc3nn[nH]n3)c(Oc3cccc(C#N)c3)c2cc1C [Example D.3, 3-(3-Cyano-phenoxy)-6-methoxy-5-methyl-benzo[b]thiophene-2-carboxylic acid (2H-tetrazol-5-yl)-amide]
13 | 235 | CCOc1ccc(Oc2c(C(=O)Nc3nn[nH]n3)sc3cc(OC)c(C)cc23)cc1 [Example D.5, 3-(4-Ethoxy-phenoxy)-6-methoxy-5-methyl-benzo[b]thiophene-2-carboxylic acid (2H-tetrazol-5-yl)-amide]
14 | 890 | COc1cc2sc(C(=O)Nc3nn[nH]n3)c(Oc3ccc(C(C)(C)C)cc3)c2cc1C [Example D.6, 3-(4-tert-Butyl-phenoxy)-6-methoxy-5-methyl-benzo[b]thiophene-2-carboxylic acid (2H-tetrazol-5-yl)-amide]
15 | 230 | COc1cc2sc(C(=O)Nc3nn[nH]n3)c(Oc3cccc(C(C)(C)C)c3)c2cc1C [Example D.7, 3-(3-tert-Butyl-phenoxy)-6-methoxy-5-methyl-benzo[b]thiophene-2-carboxylic acid (2H-tetrazol-5-yl)-amide]
16 | 2610 | COc1cc2sc(C(=O)Nc3nnn[nH]3)c(Oc3ccc(CCCSc4ccc(Cl)cc4)cc3)c2cc1C [Example D.8, 3-{4-[3-(4-Chlorophenenyl)sulfanylpropyl]phenoxy}-6-methoxy-5-methylbenzo[b]thiophene-2-caboxylic acid(1H-tetrazolyl)amide trifluroacetic acid salt]
17 | 28 | Cc1cc2sc(C(=O)Nc3nn[nH]n3)c(Oc3ccc(C4CCCCC4)cc3)c2cc1O [Example H.1, 3-(4-Cyclohexyl-phenoxy)-5-hydroxy-6-methyl-benzo[b]thiophene-2-carboxylic acid (2H-tetrazol-5-yl)-amide]
18 | 230 | Cc1cc2sc(C(=O)Nc3nn[nH]n3)c(Oc3ccc(C4CCCCC4)cc3)c2cc1OC(F)F [Example H.2, 3-(4-Cyclohexyl-phenoxy)-5-difluoromethoxy-6-methyl-benzo[b]thiophene-2-carboxylic acid (2H-tetrazol-5-yl)-amide]
19 | 1930 | COc1cc2c(Oc3ccc(C4CCCCC4)cc3)c(C(=O)Nc3nnn(C)n3)sc2cc1C [Example K.1, 3-(4-Cyclohexyl-phenoxy)-5-methoxy-6-methyl-benzo[b]thiophene-2-carboxylic acid (2-methyl-2H-tetrazol-5-yl)-amide]
20 | 1610 | COc1cc2c(Oc3ccc(C4CCCCC4)cc3)c(C(=O)N(C)c3nn[nH]n3)sc2cc1C [Example K.2, 3-(4-Cyclohexyl-phenoxy)-5-methoxy-6-methyl-benzo[b]thiophene-2-carboxylic acid methyl-(2H-tetrazol-5-yl)-amide]
21 | 115 | CCOc1cc2c(Oc3ccc(C4CCCCC4)cc3)c(C(=O)Nc3nnn[nH]3)sc2cc1C [Example L.1, 3-(4-cyclohexyl-phenoxy)-5-ethoxy-6-methyl-benzo[b]thiophene-2-carboxylic acid (1H-tetrazol-5-yl)-amide]

system: not given; test: not given; conditions: not given

Row | melting point [°C] | SMILES
22 | 204 | COc1cc2sc(C(=O)Nc3nnn[nH]3)c(OCc3ccc4ccccc4c3)c2cc1OC [Example C.9, 5,6-Dimethoxy-3-(naphthalen-2-ylmethoxy)-benzo[b]thiophene-2-carboxylic acid (1H-tetrazol-5-yl)-amide]
23 | 197 to 198 | COc1cc2c(Oc3ccc(C4CCCCC4)cc3)c(C(=O)N(C)c3nn[nH]n3)sc2cc1C [Example K.2, 3-(4-Cyclohexyl-phenoxy)-5-methoxy-6-methyl-benzo[b]thiophene-2-carboxylic acid methyl-(2H-tetrazol-5-yl)-amide]
